system: pCHK1 (S345) in Colo320 DM cells; test: Alphalisa assay, detection of pCHK1 (S345) in Colo320 DM cells; format: cell-based, human; details: Homo sapiens, COLO 320DM, compound overnight (approximately 16 hours)
Method: Colo320 DM cells (ATCC #CCL-220, derived from human colorectal adenocarcinoma, Dukes' type C) were seeded on a […], cell culture treated assay plate at a density of 50,000 cells/well in 200 μL of RPMI-1640 media supplemented with 10% Fetal Bovine Serum and incubated at 37° C. overnight. The following day, test compound dilutions were added directly to the plated cells by a Tecan digital dispenser to a final DMSO concentration of <0.5%. and incubated at 37° C. overnight (approximately 16 hours). The following day all cell culture media was removed from the cells. 75 μL of 1×AlphaLisa lysis buffer was added to each well and plates were agitated on a shaker for 30 minutes at room temperature. The lysis of cells and detection of pCHK1 (S345) were performed with reagents contained within the AlphaLisa Sure Fire assay kit (Perkin Elmer #ALSU-PCHK1-A) according to the manufacturer's instructions. 10 μL of each lysate was then transferred to a white, 384-well assay plate (Perkin Elmer #6008280). 5 μL of Acceptor mix was then added to each well of lysate in the white, 384-well assay plate and incubated in the dark at room temperature for 60 minutes. 5 μL of Donor mix was then added to each well of the white, 384-well assay plate in subdued light and incubated at room temperature for 60 minutes. Plates were read on an Alpha Technology-compatible plate reader using standard AlphaLisa settings.

IC50 [µM] | Compound
1 to 5 | CC(=O)c1cc(Cl)cc2c1S(=O)(=O)N([C@H](c1n[nH]c(=O)o1)[C@@H](C)c1c(F)ccc(C)c1C)CN2C1CC1 [Example 94, 5-((1S,2S)-1-(8-acetyl-6-chloro-4-cyclopropyl-1,1-dioxido-3,4-dihydro-2H-benzo[e][1,2,4]thiadiazin-2-yl)-2-(6-fluoro-2,3-dimethylphenyl)propyl)-1,3,4-oxadiazol-2 (3H)-one]
≤ 1 | Cc1ccc(F)c([C@@H](C)[C@@H](c2n[nH]c(=O)o2)N2CN(C3CN(CC(F)F)C3)c3cc(Cl)ccc3S2(=O)=O)c1C [Example 107, 5-((1S,2R)-1-(6-chloro-4-(1-(2,2-difluoroethyl)azetidin-3-yl)-1,1-dioxido-3,4-dihydro-2H-benzo[e][1,2,4]thiadiazin-2-yl)-2-(6-fluoro-2,3-dimethylphenyl)propyl)-1,3,4-oxadiazol-2 (3H)-one]
≤ 1 | CC(=O)c1cc(Cl)cc2c1S(=O)(=O)N([C@H](c1n[nH]c(=O)o1)[C@H](C)c1c(F)ccc(C)c1C)CN2CCO [Example 110, 5-((1S,2R)-1-(8-acetyl-6-chloro-4-(2-hydroxyethyl)-1,1-dioxido-3,4-dihydro-2H-benzo[e][1,2,4]thiadiazin-2-yl)-2-(6-fluoro-2,3-dimethylphenyl)propyl)-1,3,4-oxadiazol-2 (3H)-one]
≤ 1 | Cc1ccc(F)c([C@@H](C)[C@@H](c2n[nH]c(=O)o2)N2CN([C@H]3C[C@@H](N(C)C)C3)c3cc(Cl)ccc3S2(=O)=O)c1C [Example 111, 5-((1S,2R)-1-(6-chloro-4-((1s,3R)-3-(dimethylamino)cyclobutyl)-1,1-dioxido-3,4-dihydro-2H-benzo[e][1,2,4]thiadiazin-2-yl)-2-(6-fluoro-2,3-dimethylphenyl)propyl)-1,3,4-oxadiazol-2 (3H)-one]
5 to 10 | Cc1ccc(F)c([C@@H](C)[C@@H](c2n[nH]c(=O)o2)N2CN(CCN)c3cc(Cl)ccc3S2(=O)=O)c1C [Example 113, 5-((1S,2R)-1-(4-(2-aminoethyl)-6-chloro-1,1-dioxido-3,4-dihydro-2H-benzo[e][1,2,4]thiadiazin-2-yl)-2-(6-fluoro-2,3-dimethylphenyl)propyl)-1,3,4-oxadiazol-2 (3H)-one]

More lines, now with the values behind:

Compound | IC50 [µM]
Cc1ccc(F)c([C@H](C)[C@H](c2n[nH]c(=O)o2)N2CN(CC(O)CO)c3cc(Cl)ccc3S2(=O)=O)c1C (mixture of isomers) [Example 85, 5-((1R,2S)-1-(6-chloro-4-(2,3-dihydroxypropyl)-1,1-dioxido-3,4-dihydro-2H-benzo[e][1,2,4]thiadiazin-2-yl)-2-(6-fluoro-2,3-dimethylphenyl)propyl)-1,3,4-oxadiazol-2 (3H)-one] | 1 to 5
Cc1ccc(F)c([C@@H](C)[C@@H](c2n[nH]c(=O)o2)N2CCOc3c(ccc(Cl)c3C(C)O)S2(=O)=O)c1C (single isomer, unassigned) [Example 28] | > 50
Cc1ccc(F)c([C@@H](C)[C@@H](c2n[nH]c(=O)o2)N2C(C)N(C)c3cc(Cl)ccc3S2(=O)=O)c1C (stereo partly drawn) [Example 11, 5-((1S,2R)-1-(6-chloro-3,4-dimethyl-1,1-dioxido-3,4-dihydro-2H-benzo[e][1,2,4]thiadiazin-2-yl)-2-(6-fluoro-2,3-dimethylphenyl)propyl)-1,3,4-oxadiazol-2 (3H)-one] | 10 to 50
Cc1ccc(F)c([C@@H](C)[C@@H](c2n[nH]c(=O)o2)N2COc3c(ccc(Cl)c3C)S2(=O)=O)c1C [Example 31, 5-((1S,2R)-1-(6-chloro-5-methyl-1,1-dioxidobenzo[e][1,4,3]oxathiazin-2 (3H)-yl)-2-(6-fluoro-2,3-dimethylphenyl)propyl)-1,3,4-oxadiazol-2 (3H)-one] | 1 to 5
Cc1ccc(F)c([C@@H](C)[C@@H](c2n[nH]c(=O)o2)N2CN(CC(C)(C)O)c3cc(Cl)ccc3S2(=O)=O)c1C [Example 91, 5-((1S,2R)-1-(6-chloro-4-(2-hydroxy-2-methylpropyl)-1,1-dioxido-3,4-dihydro-2H-benzo[e][1,2,4]thiadiazin-2-yl)-2-(6-fluoro-2,3-dimethylphenyl)propyl)-1,3,4-oxadiazol-2 (3H)-one] | ≤ 1
Cc1ccc(F)c([C@@H](C)[C@@H](c2n[nH]c(=O)o2)N2CN(CCF)c3cc(Cl)ccc3S2(=O)=O)c1C [Example 108, 5-((1S,2R)-1-(6-chloro-4-(2-fluoroethyl)-1,1-dioxido-3,4-dihydro-2H-benzo[e][1,2,4]thiadiazin-2-yl)-2-(6-fluoro-2,3-dimethylphenyl)propyl)-1,3,4-oxadiazol-2 (3H)-one] | ≤ 1
CC(=O)c1cc(Cl)cc2c1S(=O)(=O)N([C@H](c1n[nH]c(=O)o1)[C@H](C)c1c(F)ccc(C)c1C)CN2 [Example 109, 5-((1S,2R)-1-(8-acetyl-6-chloro-1,1-dioxido-3,4-dihydro-2H-benzo[e][1,2,4]thiadiazin-2-yl)-2-(6-fluoro-2,3-dimethylphenyl)propyl)-1,3,4-oxadiazol-2 (3H)-one] | ≤ 1
Cc1ccc(F)c([C@@H](C)[C@@H](c2n[nH]c(=O)o2)N2CN([C@H]3C[C@@H](O)C3)c3cc(Cl)ccc3S2(=O)=O)c1C [Example 112, 5-((1S,2R)-1-(6-chloro-4-((1s,3R)-3-hydroxycyclobutyl)-1,1-dioxido-3,4-dihydro-2H-benzo[e][1,2,4]thiadiazin-2-yl)-2-(6-fluoro-2,3-dimethylphenyl)propyl)-1,3,4-oxadiazol-2 (3H)-one] | ≤ 1
Cc1ccc(F)c([C@@H](C)[C@@H](c2n[nH]c(=O)o2)N2CN(OCc3ccccc3)c3cc(Cl)ccc3S2(=O)=O)c1C [Example 114, 5-((1S,2R)-1-(4-(benzyloxy)-6-chloro-1,1-dioxido-3,4-dihydro-2H-benzo[e][1,2,4]thiadiazin-2-yl)-2-(6-fluoro-2,3-dimethylphenyl)propyl)-1,3,4-oxadiazol-2 (3H)-one] | 5 to 10
CNCCN1CN([C@H](c2n[nH]c(=O)o2)[C@H](C)c2c(F)ccc(C)c2C)S(=O)(=O)c2ccc(Cl)cc21 [Example 115, 5-((1S,2R)-1-(6-chloro-4-(2-(methylamino)ethyl)-1,1-dioxido-3,4-dihydro-2H-benzo[e][1,2,4]thiadiazin-2-yl)-2-(6-fluoro-2,3-dimethylphenyl)propyl)-1,3,4-oxadiazol-2 (3H)-one] | 5 to 10
CC(=O)c1cc(Cl)cc2c1S(=O)(=O)N([C@H](c1n[nH]c(=O)o1)[C@H](C)c1c(F)ccc(C)c1C)CC(=O)N2 [Example 119, 5-((1S,2R)-1-(9-acetyl-7-chloro-1,1-dioxido-4-oxo-4,5-dihydrobenzo[f][1,2,5]thiadiazepin-2 (3H)-yl)-2-(6-fluoro-2,3-dimethylphenyl)propyl)-1,3,4-oxadiazol-2 (3H)-one] | 5 to 10

same assay, conditions: compound overnight (approximately 16 hours)

IC50 [µM] | Compound
> 50 | Cc1ccc(F)c([C@@H](C)[C@@H](c2n[nH]c(=O)o2)N2CCOc3c(ccc(Cl)c3C(C)O)S2(=O)=O)c1C (single isomer, unassigned) [Example 29]

target: T1, RNR (RNR1:RNR2 1:1) (Homo sapiens, UniProt P23921); test: RNR enzyme activity, rapid-fire mass spectrometry (RF/MS) assay; format: biochemical; details: [RNR] 50 nM, 1:1 RNR1:RNR2; CDP 5 μM; ATP 1 mM; 37° C., 45 min; compounds screened up to 50 μM
T1 sequence (P23921 1-792): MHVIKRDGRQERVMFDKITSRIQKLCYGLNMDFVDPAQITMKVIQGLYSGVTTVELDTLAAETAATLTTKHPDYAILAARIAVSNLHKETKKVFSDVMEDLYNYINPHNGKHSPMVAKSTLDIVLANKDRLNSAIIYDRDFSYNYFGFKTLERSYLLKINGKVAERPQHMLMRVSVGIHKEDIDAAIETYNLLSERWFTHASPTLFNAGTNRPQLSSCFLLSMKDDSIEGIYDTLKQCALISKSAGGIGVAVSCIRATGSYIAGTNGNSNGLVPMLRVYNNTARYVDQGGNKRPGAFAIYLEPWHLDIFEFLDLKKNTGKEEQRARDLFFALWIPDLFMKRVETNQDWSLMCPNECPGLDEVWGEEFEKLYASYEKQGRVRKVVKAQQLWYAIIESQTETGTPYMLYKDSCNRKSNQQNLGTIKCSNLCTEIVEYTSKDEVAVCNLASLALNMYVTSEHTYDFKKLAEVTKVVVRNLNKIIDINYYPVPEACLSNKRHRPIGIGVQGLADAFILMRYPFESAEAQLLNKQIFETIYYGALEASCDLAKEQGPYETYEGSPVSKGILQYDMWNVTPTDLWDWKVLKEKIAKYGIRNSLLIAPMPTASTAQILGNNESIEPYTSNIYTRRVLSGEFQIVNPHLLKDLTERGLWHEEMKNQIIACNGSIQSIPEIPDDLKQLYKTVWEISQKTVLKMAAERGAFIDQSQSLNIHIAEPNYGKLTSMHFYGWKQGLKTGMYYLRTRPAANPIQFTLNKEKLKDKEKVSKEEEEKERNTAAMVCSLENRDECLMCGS
Method: A rapid-fire mass spectrometry (RF/MS) assay was used to assess RNR enzyme activity using a 384 well plate and a robotic platform.
The plate layout included two validated reference compounds (Triapine (3-AP) and Hydroxyurea (HU)): • A dose response in duplicate; top concentration: 5 μM (3-AP) and 250 μM (HU), semi-log dilutions. • Spike wells in triplicate randomly spotted at four concentrations: • 250 μM, 100 μM, 30 μM and 2 μM for HU • 5 μM, 2 μM, 0.6 μM and 0.04 μM for 3-AP
First, the multidrop pipes were saturated for 30 minutes with enzymatic solution. Then 30 μL of Stop solution was distributed in column 24. Next, 15 μL of enzyme was distributed in column 1 to 24. Next, a pre-incubation step of 15 minutes at room temperature occurred, followed by distribution of 15 μL of substrate solution (column 1 to 24). Next, the plate was incubated for 45 minutes at 37° C. 30 μL of Stop solution was then distributed to columns 1 to 23.
The final parameters for the enzyme reactions were: • Incubation: 37° C., 45 min • [CDP]: 5 μM; [ATP]: 1 mM; [NADPH]: No • [RNR]final: 50 nM with 1:1 (RNR1:RNR2) ratio • Final volume: 30 μL • Stop solution: 6% HCOOH in water

IC50 [µM] | Compound
< 0.02 | Cc1ccc(F)c([C@H](C)[C@H](c2n[nH]c(=O)o2)N2CN(CC(O)CO)c3cc(Cl)ccc3S2(=O)=O)c1C (mixture of isomers) [Example 85, 5-((1R,2S)-1-(6-chloro-4-(2,3-dihydroxypropyl)-1,1-dioxido-3,4-dihydro-2H-benzo[e][1,2,4]thiadiazin-2-yl)-2-(6-fluoro-2,3-dimethylphenyl)propyl)-1,3,4-oxadiazol-2 (3H)-one]
1 to 10 | Cc1ccc(F)c([C@@H](C)[C@@H](c2n[nH]c(=O)o2)N2CCOc3c(ccc(Cl)c3C(C)O)S2(=O)=O)c1C (single isomer, unassigned) [Example 28]
10 to 100 | Cc1ccc(F)c([C@@H](C)[C@@H](c2n[nH]c(=O)o2)N2CCOc3c(ccc(Cl)c3C(C)O)S2(=O)=O)c1C (single isomer, unassigned) [Example 29]
